In patent US9750742B2, “Small molecular inhibitors of RAD51 recombinase and methods thereof” (Drexel University, priority 2011, dated 2017):
“Also recorded” adds a separate entry of the source.

Key:
RAD54 = molecular target: T1, RAD54 (Homo sapiens, UniProt Q92698); test: DNA branch migration assay for RAD54; assay type: biochemical; conditions: 0 to 200 μM
T1 construct: made in house
T1 sequence (Q92698 1-747): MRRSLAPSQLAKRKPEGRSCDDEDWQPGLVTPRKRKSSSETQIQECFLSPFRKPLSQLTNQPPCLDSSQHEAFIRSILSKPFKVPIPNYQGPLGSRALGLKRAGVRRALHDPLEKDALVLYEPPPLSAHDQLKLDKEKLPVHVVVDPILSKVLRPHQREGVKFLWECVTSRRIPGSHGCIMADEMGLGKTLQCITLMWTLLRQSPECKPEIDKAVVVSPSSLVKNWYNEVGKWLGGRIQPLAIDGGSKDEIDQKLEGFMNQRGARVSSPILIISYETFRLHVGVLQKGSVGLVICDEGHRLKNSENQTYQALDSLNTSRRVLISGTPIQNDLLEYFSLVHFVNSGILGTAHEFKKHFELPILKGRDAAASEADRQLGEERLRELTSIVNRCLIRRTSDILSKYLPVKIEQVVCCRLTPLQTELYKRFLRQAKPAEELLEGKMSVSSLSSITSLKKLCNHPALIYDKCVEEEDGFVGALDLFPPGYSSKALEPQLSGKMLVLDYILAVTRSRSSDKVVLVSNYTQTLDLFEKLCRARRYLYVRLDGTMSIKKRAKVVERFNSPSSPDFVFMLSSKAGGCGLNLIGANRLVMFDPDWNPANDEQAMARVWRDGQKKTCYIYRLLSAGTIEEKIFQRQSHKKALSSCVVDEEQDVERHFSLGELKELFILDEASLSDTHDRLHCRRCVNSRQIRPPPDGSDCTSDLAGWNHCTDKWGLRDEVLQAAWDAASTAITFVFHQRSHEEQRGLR
Experimental: The partial Holliday junction (PX-junction), in which one of the four DNA arms is single-stranded (FIG. 6A), was used as a substrate for the 4-stranded branch migration promoted by RAD54 (Mazina et al., 2007, J. Biol. Chem. 282:21068-80). […] To produce PX-junctions, tailed DNA (Oligo 170, SEQ ID NO:9; Oligo 171, SEQ ID NO:10) (1.45 μM, molecules) was annealed with ^32P-labeled fork DNA (Oligo 71, SEQ ID NO:7; Oligo 169, SEQ ID NO:8) (1.33 μM, molecules) in branch migration buffer containing 25 mM Tris acetate, pH 7.5, 3 mM magnesium acetate, 2 mM ATP, 1 mM dithiothreitol, 100 μg ml^−1 bovine serum albumin, 10 U ml^−1 creatine phosphokinase, 15 mM creatine phosphate for 10 min at 37° C. and then for 10 min at 30° C. Then, branch migration was initiated immediately by addition of the RAD54 (100 nM) to PX-junctions (33 nM, molecules) in branch migration buffer and was carried out at 30° C. […] The DNA products were deproteinized by treatment with stop buffer (1.4% (w/v) SDS, 960 μg ml^−1 proteinase K, 7.5% (w/v) glycerol, 0.015% (w/v) bromphenol blue) for 5 min at 22° C. and analyzed by electrophoresis in 8% (w/v) polyacrylamide gels (29:1) in 1×TBE buffer (89 mM Tris borate, pH 8.3, and 1 mM EDTA) at 22° C. The gels were dried on DE81 chromatography paper (Whatman, Kent, UK) and quantified using a Storm 840 PhosphorImager (Molecular Dynamics, Piscataway, N.J.).

[1] = tested on: DR-GFP reporter system in 293 human embryonic kidney (HEK) cells; test: DR-GFP assay for homologous recombination in human cells; assay type: cell-based; conditions: B02 20 μM; non-treatment cells 3.28%
Experimental: 293 HEK cells expressing DR-GFP were grown until the log phase. […] Then a 200 μl mixture containing 2 μg of pCBASce supercoiled plasmid DNA encoding I-SceI rare-cutting restriction endonuclease (Richardson et al., 1998, Genes Dev. 12:3831-42) and 6 μl of GenDrill™ transfection reagent (BamaGen BioScience LLC) in Opti-MEM® I Reduced-Serum (Invitrogen) was added to each well. After 2 days incubation, cells were trypsinized and diluted to density of 200 cells/μl in PBS (10 mM Na2HPO4, 1.76 mM KH2PO4, 137 mM NaCl and 2.7 mM KCl, pH 7.4) for Fluorescence Activated Cell Sorting (FACS) analysis on a Guava EasyCyte Plus System (Millipore, Billerica, Mass.).

MEF cells = test: Clonogenic survival assay, MEF; assay type: cell-based, mouse
Experimental: (§1) Briefly, MEF cells were trypsinized and the appropriate number of cells was replated on 10 cm tissue culture dishes. […] Cells were fixed and stained using staining solution (0.05% crystal violet, 50% methanol in PBS); colonies were counted using an AlphaImager 3400 (Alpha Innotech Inc.). The percent of survival was determined as described (Hall & Giccia, 2005, “Radiobiology for the Radiologist”, 6th Ed., Philadelphia, Pa.: Lippincott Williams & Wilkins, pp. 30-45). The percent of survival obtained from untreated cells was normalized to 100% survival.

HEK cells = test: Clonogenic survival, HEK cells sensitivity to cisplatin; assay type: cell-based, human
Experimental: as §1
To suppress RAD51 expression, HEK cells were transfected with 100 nM RAD51 siRNA (sc-36361; Santa Cruz Biotechnology). Briefly, cells (1×10^6) were seeded in a 3.5-cm tissue culture plate and incubated overnight, then the medium was removed and the cell layer was washed three times with PBS. Transfection was carried out by adding 1 ml transfection solution containing 100 pmol […] siRNA and 10 μl siRNA transfection reagent (sc-29528; Santa Cruz Biotechnology) in Opti-MEM I Reduced-Serum medium (Invitrogen) to each plate. Six to 7 hours after transfection the medium was replaced with fresh DMEM+. Twenty-four, 48, 72, and 96 h after transfection, the RAD51 level was determined using Western blotting. As a specificity control scrambled siRNA (sc-37007; Santa Cruz Biotechnology) was used instead of RAD51 siRNA.

O=c1c2ccccc2nc(/C=C/c2cccnc2)n1Cc1ccccc1 [Compound B02, (E)-3-benzyl-2-(2-(pyridin-3-yl)vinyl)quinazolin-4(3H)-one]
inhibition of RAD54 branch migration, in words (RAD54): not to significantly inhibit | yield of GFP positive cells (I-SceI-induced) [1]: 0.40% | sensitivity to cisDDP (cisplatin) and MMC (MEF cells; B02 5 μM): more sensitive | sensitivity to MMS (MEF cells; B02 5 μM co-treatment with MMS): enhancement of sensitivity | sensitivity to MMS (MEF cells; B02 5 μM plus AZD2281 1 μM versus AZD2281 only): more sensitive | increase in sensitivity to MMC (MEF cells; B02 5 μM, MMC 1 μM): fivefold | increase in sensitivity to cisplatin (MEF cells; B02 5 μM, cisplatin 32 μM): approximately 17 fold | cellular viability, B02 alone (MEF cells; up to 5 μM, wild type MEF): No decrease of cellular viability; also recorded: did not have a substantial effect | incubation time at which maximal sensitivity was reached (HEK cells; B02 5 μM, cisplatin 16 μM): 16 h | incubation time required to increase the sensitivity of HEK cells for cisplatin (HEK cells; B02 5 μM, cisplatin 16 μM): 10 to 12 h | sensitization of HEK cells to cisplatin (HEK cells; B02 combined with RAD51 siRNA versus each alone): more strongly sensitized
